From patent EP4461773A1, “FLUORESCENT HEMICRYPTOPHANES AND USES THEREOF” (Ecole Centrale de Marseille, priority 2023, dated 2024)
Read-outs that look alike come from different tables or passages of the source.

Assays:
[1] = comparative data, stated as obtained according to the same procedure; footnotes cite New J. Chem. 2019 and GFP congress 2022; cited from earlier work
[2] = in water at pH 7, estimated; cited from earlier work
[3] = Fluorescence titration with chlordecone, binding constant calculated with Bindfit; details: compounds of the invention; DMSO+2% H2O, 25 °C, host 5.0 µM or 0.5 µM, chlordecone 5.0 mM additions
Method: A solution of each hemicryptophane (2.5 mL, 5.0 µM for hosts 9 and 5 and 0.5 µM for host 8) in DMSO+2% H2O was transferred into the quartz cuvette. Successive additions of a concentrated chlordecone solution (5.0 mM in the same solvent mixture) were performed. The final volume of the solution was almost unchanged (2.5 mL) since very small volumes of chlordecone solution were added. The solutions were mixed and incubated for 30 s before irradiation at their maximum of excitation (274 nm, 297 nm and 349 nm for hosts 9, 5, 8 respectively) at 25 °C. The corresponding emission values during titration were then recorded. Fluorescence emission spectra are reproduced at Figures 1A (5), 1B (8), and 1C (9) and the relative fluorescence intensities as a function of the [chlordecone]/[hemicryptophane] are reproduced at Figures 2A (5), 2B (8), and 2C (9).
Binding constant (Ka) were calculated using Bindfit program and results are reproduced at Table 1 below, further including comparative data obtained according to the same procedure.

Row | Structure (SMILES) | Binding constant (Ka) [1] | other results
1 | COc1cc2c3cc1OCCOc1ccc(cc1)CNC(=O)CN1CC(=O)NCc4ccc(cc4)OCCOc4cc(c(cc4OC)C3)Cc3cc(OC)c(cc3C2)OCCOc2ccc(cc2)CNC(=O)C1 | [drawing 21] Ka = 126 L/mol ± 3.7% | 
2 | COc1cc2c3cc1OCCOc1ccc(cc1)CNCCN1CCNCc4ccc(cc4)OCCOc4cc(c(cc4OC)C3)Cc3cc(OC)c(cc3C2)OCCOc2ccc(cc2)CNCC1 | [drawing 22] Ka = 2.1 x 10^4 L/mol ± 3.4% | 
3 | COc1cc2c3cc1OCCOc1ccc4cc(ccc4c1)CNCCN1CCNCc4ccc5cc(ccc5c4)OCCOc4cc(c(cc4OC)C3)Cc3cc(OC)c(cc3C2)OCCOc2ccc3cc(ccc3c2)CNCC1 | [drawing 23] Ka = 6.4 x 10^3 L/mol ± 4.4% | 
4 | C(#Cc1cc2c3cc1OCCOc1ccc(cc1)CNCCN1CCNCc4ccc(cc4)OCCOc4cc(c(cc4C#Cc4ccccc4)C3)Cc3cc(C#Cc4ccccc4)c(cc3C2)OCCOc2ccc(cc2)CNCC1)c1ccccc1 | [drawing 25] Ka = 1.4 x 10^5 L/mol ± 12% | 
5 | COc1cc2c3cc1OCCOc1ccc(cc1-c1ccccc1)CNCCN1CCNCc4ccc(c(-c5ccccc5)c4)OCCOc4cc(c(cc4OC)C3)Cc3cc(OC)c(cc3C2)OCCOc2ccc(cc2-c2ccccc2)CNCC1 | [drawing 26] Ka = 1.9 x 10^4 L/mol ± 75% | 
6 | COc1cc2c3cc1OCCOc1ccc(cc1)CN(S(=O)(=O)c1cccc4c(N(C)C)cccc14)CCN1CCN(S(=O)(=O)c4cccc5c(N(C)C)cccc45)Cc4ccc(cc4)OCCOc4cc(c(cc4OC)C3)Cc3cc(OC)c(cc3C2)OCCOc2ccc(cc2)CN(S(=O)(=O)c2cccc3c(N(C)C)cccc23)CC1 | [drawing 27] Ka = 3.0 x 10^3 L/mol ± 6.9% | 
7 | O=C1C2(Cl)C3(Cl)C4(Cl)C(Cl)(Cl)C5(Cl)C3(Cl)C1(Cl)C5(Cl)C24Cl (centres unmarked) [Chlordecone] |  | solubility [2]: around 2 mg/L
8 | COc1cc2c3cc1OCCNCc1cc(-c4ccccc4)ccc1OCc1cc4cc(c1)COc1ccc(-c5ccccc5)cc1CNCCOc1cc(c(cc1OC)Cc1cc(c(OC)cc1C3)OCCNCc1cc(-c3ccccc3)ccc1OC4)C2 [compound 9] |  | Binding constant (Ka) [3]: [drawing 20] Ka = 4.6 x 10^5 L/mol ± 17%
